According to patent US20050260637A1, “Drug screening” (priority 2004, published 2005):
Read-outs that look alike come from different tables or passages of the source.

T1: M2/M1 (hRRM2 and hRRM1 reconstituted RNR) (Homo sapiens, UniProt P31350)
T1 construct: 6xHis; made in house
T1 sequence (P31350 1-389): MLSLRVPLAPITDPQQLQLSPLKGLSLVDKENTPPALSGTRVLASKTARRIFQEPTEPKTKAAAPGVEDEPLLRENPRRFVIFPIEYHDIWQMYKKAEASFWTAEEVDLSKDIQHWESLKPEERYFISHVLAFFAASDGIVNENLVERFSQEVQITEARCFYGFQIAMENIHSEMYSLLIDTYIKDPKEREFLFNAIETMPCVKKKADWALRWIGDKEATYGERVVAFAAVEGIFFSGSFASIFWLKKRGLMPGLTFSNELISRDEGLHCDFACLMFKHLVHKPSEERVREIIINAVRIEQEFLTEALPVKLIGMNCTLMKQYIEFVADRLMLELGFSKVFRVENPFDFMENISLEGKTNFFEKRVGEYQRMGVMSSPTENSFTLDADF

T2: p53R2/M1 (p53R2 and hRRM1 reconstituted RNR) (Homo sapiens, UniProt Q7LG56)
T2 construct: 6xHis; made in house
T2 sequence (Q7LG56 1-351): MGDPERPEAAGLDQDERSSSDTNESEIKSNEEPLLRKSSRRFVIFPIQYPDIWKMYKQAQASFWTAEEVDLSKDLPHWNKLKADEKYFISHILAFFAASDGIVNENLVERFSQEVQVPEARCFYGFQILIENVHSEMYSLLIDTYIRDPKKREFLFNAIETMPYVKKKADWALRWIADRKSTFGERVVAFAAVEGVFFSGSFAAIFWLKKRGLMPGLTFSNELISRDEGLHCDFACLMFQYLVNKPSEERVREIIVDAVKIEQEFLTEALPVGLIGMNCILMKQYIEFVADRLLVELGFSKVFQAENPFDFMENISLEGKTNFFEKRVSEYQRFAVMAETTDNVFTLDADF

T3: hRRM1 (human ribonucleotide reductase large subunit M1)
T3 chain: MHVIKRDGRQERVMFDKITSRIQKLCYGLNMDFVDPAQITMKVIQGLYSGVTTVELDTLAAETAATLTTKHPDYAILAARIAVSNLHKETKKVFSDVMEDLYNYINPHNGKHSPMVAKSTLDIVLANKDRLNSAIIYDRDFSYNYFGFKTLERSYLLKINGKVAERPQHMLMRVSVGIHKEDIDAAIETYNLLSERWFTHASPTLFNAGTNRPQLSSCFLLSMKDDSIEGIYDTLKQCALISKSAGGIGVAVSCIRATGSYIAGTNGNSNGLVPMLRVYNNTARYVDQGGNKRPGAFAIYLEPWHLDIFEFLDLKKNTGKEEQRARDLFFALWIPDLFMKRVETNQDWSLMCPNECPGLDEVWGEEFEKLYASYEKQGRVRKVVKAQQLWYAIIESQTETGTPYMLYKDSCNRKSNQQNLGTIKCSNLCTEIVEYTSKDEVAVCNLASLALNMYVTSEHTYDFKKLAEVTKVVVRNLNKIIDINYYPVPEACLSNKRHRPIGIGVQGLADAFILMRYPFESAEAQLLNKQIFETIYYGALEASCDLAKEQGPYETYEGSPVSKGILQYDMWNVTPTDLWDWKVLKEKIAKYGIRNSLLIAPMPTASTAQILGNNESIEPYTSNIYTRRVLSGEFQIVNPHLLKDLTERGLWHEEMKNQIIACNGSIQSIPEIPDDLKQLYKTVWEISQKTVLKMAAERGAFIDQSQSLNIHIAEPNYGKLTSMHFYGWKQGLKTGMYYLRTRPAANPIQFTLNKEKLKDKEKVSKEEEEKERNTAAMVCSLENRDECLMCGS

T4: hRRM1 (human ribonucleotide reductase large subunit M1) (human, UniProt P23921 1-792)
T4 construct: also called R1 subunit
T4 sequence: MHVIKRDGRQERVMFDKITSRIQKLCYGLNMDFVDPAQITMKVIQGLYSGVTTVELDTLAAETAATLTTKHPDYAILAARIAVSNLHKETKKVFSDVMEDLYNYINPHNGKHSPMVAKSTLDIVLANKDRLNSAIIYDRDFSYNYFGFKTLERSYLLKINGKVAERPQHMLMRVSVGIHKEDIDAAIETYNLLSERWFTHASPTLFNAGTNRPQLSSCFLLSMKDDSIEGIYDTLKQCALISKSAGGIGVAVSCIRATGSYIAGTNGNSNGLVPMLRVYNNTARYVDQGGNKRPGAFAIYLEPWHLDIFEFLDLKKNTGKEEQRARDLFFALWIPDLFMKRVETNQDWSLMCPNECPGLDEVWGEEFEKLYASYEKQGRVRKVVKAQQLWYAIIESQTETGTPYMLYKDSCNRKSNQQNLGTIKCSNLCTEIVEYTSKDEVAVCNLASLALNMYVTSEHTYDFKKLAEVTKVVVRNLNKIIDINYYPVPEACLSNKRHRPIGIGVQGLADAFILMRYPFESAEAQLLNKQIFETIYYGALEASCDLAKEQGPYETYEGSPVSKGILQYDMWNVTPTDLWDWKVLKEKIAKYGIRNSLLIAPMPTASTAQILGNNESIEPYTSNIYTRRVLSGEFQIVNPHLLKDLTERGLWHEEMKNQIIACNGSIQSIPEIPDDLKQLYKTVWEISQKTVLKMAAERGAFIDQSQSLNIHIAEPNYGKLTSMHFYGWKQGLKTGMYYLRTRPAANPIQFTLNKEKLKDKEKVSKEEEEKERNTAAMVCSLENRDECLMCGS

B1: p53R2 (human ribonucleotide reductase small subunit p53R2) (protein)
chain: MGDPERPEAAGLDQDERSSSDTNESEIKSNEEPLLRKSSRRFVIFPIQYPDIWKMYKQAQASFWTAEEVDLSKDLPHWNKLKADEKYFISHILAFFAASDGIVNENLVERFSQEVQVPEARCFYGFQILIENVHSEMYSLLIDTYIRDPKKREFLFNAIETMPYVKKKADWALRWIADRKSTFGERVVAFAAVEGVFFSGSFAAIFWLKKRGLMPGLTFSNELISRDEGLHCDFACLMFQYLVNKPSEERVREIIVDAVKIEQEFLTEALPVGLIGMNCILMKQYIEFVADRLLVELGFSKVFQAENPFDFMENISLEGKTNFFEKRVSEYQRFAVMAETTDNVFTLDADF
B2: hRRM2 (human ribonucleotide reductase small subunit M2) (protein)
chain: MLSLRVPLAPITDPQQLQLSPLKGLSLVDKENTPPALSGTRVLASKTARRIFQEPTEPKTKAAAPGVEDEPLLRENPRRFVIFPIEYHDIWQMYKKAEASFWTAEEVDLSKDIQHWESLKPEERYFISHVLAFFAASDGIVNENLVERFSQEVQITEARCFYGFQIAMENIHSEMYSLLIDTYIKDPKEREFLFNAIETMPCVKKKADWALRWIGDKEATYGERVVAFAAVEGIFFSGSFASIFWLKKRGLMPGLTFSNELISRDEGLHCDFACLMFKHLVHKPSEERVREIIINAVRIEQEFLTEALPVKLIGMNCTLMKQYIEFVADRLMLELGFSKVFRVENPFDFMENISLEGKTNFFEKRVGEYQRMGVMSSPTENSFTLDADF
B3: truncated form of the M2 subunit, lacking these 7 amino acids at the C-terminus (enzyme)
chain: MLSLRVPLAPITDPQQLQLSPLKGLSLVDKENTPPALSGTRVLASKTARRIFQEPTEPKTKAAAPGVEDEPLLRENPRRFVIFPIEYHDIWQMYKKAEASFWTAEEVDLSKDIQHWESLKPEERYFISHVLAFFAASDGIVNENLVERFSQEVQITEARCFYGFQIAMENIHSEMYSLLIDTYIKDPKEREFLFNAIETMPCVKKKADWALRWIGDKEATYGERVVAFAAVEGIFFSGSFASIFWLKKRGLMPGLTFSNELISRDEGLHCDFACLMFKHLVHKPSEERVREIIINAVRIEQEFLTEALPVKLIGMNCTLMKQYIEFVADRLMLELGFSKVFRVENPFDFMENISLEGKTNFFEKRVGEYQRMGVMSSPTENS
notes: also called truncated M2

Legend:
[1] = system: RNR containing hRRM2 or p53R2; assay: In vitro RNR activity assay, both reconstituted RNRs compared (average, selective index, comparison in words); assay type: biochemical, human; settings: for Selective index: M2/M1 versus p53R2/M1
Description: (§1) To reconstitute an active RNR, three 6′His-tag human RNR subunit proteins (hRRM2, p53R2, and hRRM1) were prokaryotically expressed, purified using Ni-resin affinity chromatography, and stored in 50 mM Tris-HCl, pH 7.4, 100 mM KCl at −70° C. according to standard techniques. The purified proteins were subjected to SDS-PAGE analysis. […] To reconstitute RNR, 1 μM of hRRM2 or p53R2 protein was incubated with 0.5 μM hRRM1 protein in multiple-well plates. The reconstitute RNR was tested for RNR activity according to standard techniques.
(§2) Each compound of various concentration was mixed with the purified hRRM2 and hRRM1, or p53R2 and hRRM1 at room temperature for 30 minutes. An enzymatic reaction buffer was then added to the mixture to reach a final volume of 100 μl and incubated at 37° C. for 30 minutes. The reaction buffer contained […] [^3H] CDP, 50 mM HEPES pH 7.2,6 mM DTT, 4 mM MgOAC, 2 mM ATP, 0.05 mM CDP, 100 mM KCl, and 0.24 mM NADPH. […] FeCl3 could be added to the buffer as an iron source. After dephosphorylation, the supernatant of each reaction mixture was analyzed by an HPLC-connected radioactivity detector. IC50 values were calculated by the non-linear regression equations: f (x)=(a-d)/[1+(x/c)^b]+d.
(§3) The above-described four SB-HSCs were tested for their inhibitory potency and subunit-selectivity by the in vitro RNR assay in the same manner descried above. The dose-dependent inhibition curves were found.

[2] = target: T1, M2/M1 (hRRM2 and hRRM1 reconstituted RNR); assay: In vitro RNR activity assay with reconstituted hRRM2/hRRM1 ([3H]CDP reduction); assay type: biochemical; settings: read-out: In vitro RR activity (IC50 ± sd) M2/M1
Description: as §1, §2

[3] = target: T2, p53R2/M1 (p53R2 and hRRM1 reconstituted RNR); assay: In vitro RNR activity assay with reconstituted p53R2/hRRM1 ([3H]CDP reduction); assay type: biochemical; settings: read-out: In vitro RR activity (IC50 ± sd) p53R2/M1
Description: as §1, §2

[4] = system: T5, RNR containing hRRM2 or p53R2; assay: In vitro RNR activity assay, both reconstituted RNRs compared (average, selective index, comparison in words); assay type: biochemical, human; settings: average of M2/M1 and p53R2/M1, read-out: In vitro RR activity (IC50) Average
T5 construct: In vitro RR activity (IC50) Average; other: compound in 1% DMSO; average of M2/M1 and p53R2/M1; other: compound in 2.5% DMSO; other: compound in dH2O + FeCl3; other: compound in dH2O; Inhi; fused on or other part: 6xHis tag on each subunit
Description: as §1, §2, §3

[5] = Standard cell-based assay; settings: read-out: Cell-based assay (IC50 ± sd)
[6] = target: T3, hRRM1 (human ribonucleotide reductase …)
[7] = target: T4, hRRM1 (human ribonucleotide reductase …); assay: complex formation (method not described)

Molecule | Small subunit selectivity of RNR inhibition (in words) [1] | IC50 ([2]; compound in 2.5% DMSO) | IC50 ([3]; compound in 2.5% DMSO) | IC50 ([4]; compound in 2.5% DMSO) | IC50 [5] | also measured
C[S+](C)[O-] [DMSO] | inhibited p53R2-containing-RNR more potently than hRRM2-containing RNR |  |  |  |  | 
O=C(NO)NN=Cc1cc(Cl)cc(Cl)c1O [SB-HSC2] | significantly more efficient in inactivating p53R2 | 111 ± 6.64 µM | 30.6 ± 1.62 µM | 70.7 µM | 6.5 ± 0.6 µM | Selective index ([1]; compound in 2.5% DMSO): 3.62
O=C(NO)NN=Cc1ccc(O)c(O)c1O [SB-HSC21] | almost the same inhibitory activities on both small subunits |  |  |  | 2.7 ± 0.6 µM | IC50 ([2]; compound in 1% DMSO): 11.5 ± 0.63 µM; IC50 ([3]; compound in 1% DMSO): 13.6 ± 0.7 µM; Selective index ([1]; compound in 1% DMSO): 0.85; IC50 ([4]; compound in 1% DMSO): 12.5 µM
O=C(NO)NN=Cc1ccc([N+](=O)[O-])s1 [SB-HSC24] | significantly more efficient in inactivating p53R2 | 52 ± 2.03 µM | 11.5 ± 0.6 µM | 31.7 µM | 10.6 ± 0.3 µM | Selective index ([1]; compound in 2.5% DMSO): 4.53
Cc1c2ccccc2c(C=NNC(=O)NO)c2ccccc12 [SB-HSC29] |  | > 250 µM | > 250 µM | > 250 µM | 4.4 µM | 
NNC(N)=O [SC, semicarbazide, reference compound] |  |  |  |  | > 2190 µM | IC50 ([2]; compound in dH2O): > 5000 µM; IC50 ([3]; compound in dH2O): > 5000 µM; IC50 ([4]; compound in dH2O): > 5000 µM
B1 |  |  |  |  |  | RNR activity of reconstituted RNR [6]: It was found it possessed RNR activity
B2 |  |  |  |  |  | RNR activity of reconstituted RNR [6]: It was found it possessed RNR activity
B3 |  |  |  |  |  | binding result [7]: no binding
